Data on 23 compounds can be found in PubChem BioAssay AID330 (DTP/NCI, 2004).

Several values for one entry are separate records, joined by “and”; a condition that tells them apart may be missing. Equal entries are not always repeated. Toxic doses and inconclusive results are not listed.

This experiment has as its system P388 leukemia ip, CD2F1 mice, survival T/C. Kind of experiment: NCI In Vivo Anticancer Drug Screen. Data for tumor model P388 Leukemia (intraperitoneal) in CD2F1 (CDF1) mice. The following applies: endpoint: median survival time, higher = longer survival. In a few lines:
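Mice carrying the transplanted tumor received test compound or vehicle. Survival was recorded in each group, and the value is the treated-group measurement divided by that of the vehicle-treated control group.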

The mark [1] stands for this setting: dose: 50.0 mg/kg/injection, schedule: Q01DX005 (ip), vehicle: Klucel (hydroxypropylcellulose) (HPC).
Setting [2] is: dose: 100.0 mg/kg/injection, schedule: Q01DX005 (ip), vehicle: Klucel (hydroxypropylcellulose) (HPC).
The mark [3] stands for this setting: dose: 200.0 mg/kg/injection, schedule: Q01DX005 (ip), vehicle: Klucel (hydroxypropylcellulose) (HPC).
Where [4] appears, read: dose: 50.0 mg/kg/injection, schedule: Q01DX005 (ip), vehicle: saline with Tween-80.
Where [5] appears, read: dose: 100.0 mg/kg/injection, schedule: Q01DX005 (ip), vehicle: saline with Tween-80.
The mark [6] stands for this setting: dose: 200.0 mg/kg/injection, schedule: Q01DX005 (ip), vehicle: saline with Tween-80.
Setting [7] is: dose: 60.0 mg/kg/injection, schedule: Q01DX005 (ip), vehicle: Klucel (hydroxypropylcellulose) (HPC).
The mark [8] stands for this setting: dose: 120.0 mg/kg/injection, schedule: Q01DX005 (ip), vehicle: Klucel (hydroxypropylcellulose) (HPC).
The mark [9] stands for this setting: dose: 50.0 mg/kg/injection, schedule: Q01DX009 (ip), vehicle: saline with Tween-80.
The mark [10] stands for this setting: dose: 50.0 mg/kg/injection, schedule: Q04DX003 (ip), vehicle: Klucel (hydroxypropylcellulose) (HPC).

Turning to `Cc1ccc(N=Nc2c(-c3ccccc3)nn(C(=S)S)c2-c2ccccc2)cc1`, the T/C runs as follows: (dose: 25.0 mg/kg/injection, schedule: Q04DX002 (ip), vehicle: Klucel (hydroxypropylcellulose) (HPC)) 101 % of control; (dose: 50.0 mg/kg/injection, schedule: Q04DX002 (ip), vehicle: Klucel (hydroxypropylcellulose) (HPC)) 105 % of control; (dose: 100.0 mg/kg/injection, schedule: Q04DX002 (ip), vehicle: Klucel (hydroxypropylcellulose) (HPC)) 99 % of control; (dose: 200.0 mg/kg/injection, schedule: Q04DX002 (ip), vehicle: Klucel (hydroxypropylcellulose) (HPC)) 103 % of control.
Turning to `[O-]c1on[n+](-c2ccccc2)c1CN1CCOCC1`, the T/C reads like this: under setting [1], 107 % of control; under setting [2], 111 % of control; under setting [3], 102 % of control.
For the compound `c1csc(C2=NCCC2)c1`, the T/C runs as follows: under setting [4], 100 % of control; under setting [5], 102 % of control; under setting [6], 102 % of control.
In the case of `OCC1OC(n2cnc3c(Cl)ncnc32)CC1O` (stereo not drawn), the T/C runs as follows: (dose: 50.0 mg/kg/injection, schedule: Q01DX005 (ip), vehicle: saline) 94 % of control; (dose: 100.0 mg/kg/injection, schedule: Q01DX005 (ip), vehicle: saline) 92 % of control; (dose: 200.0 mg/kg/injection, schedule: Q01DX005 (ip), vehicle: saline) 102 % of control.
Take `O=C(Nc1ccc(C2=NCCCN2)cc1)c1ccc(C(=O)Nc2ccc(C3=NCCCN3)cc2)nc1`: the T/C reads like this: (dose: 2.5 mg/kg/injection, schedule: Q01DX009 (ip), vehicle: saline) 100 % of control; (dose: 5.0 mg/kg/injection, schedule: Q04DX003 (ip), vehicle: saline) 95 % of control; (dose: 10.0 mg/kg/injection, schedule: Q04DX003 (ip), vehicle: saline) 90 % of control.
In the case of `COC1(NS(=O)(=O)c2ccc(C)cc2)CC1`, the T/C by setting is: under setting [7], 103 % of control; under setting [8], 91 % of control.
Consider `O=C(O)CC1SC(c2ccccc2Cl)N(/N=C/c2ccccc2Cl)C1=O` (stereo not drawn), for which the T/C (dose: 12.5 mg/kg/injection, schedule: Q01DX009 (ip), vehicle: saline with Tween-80) is 102 % of control; the T/C (dose: 25.0 mg/kg/injection, schedule: Q01DX009 (ip), vehicle: saline with Tween-80) is 98 % of control; the T/C under setting [9] is 99 % of control and 87 % of control.
Take `COC(=O)[C@@]12OC[C@]34[C@H]([C@@H](O)[C@@H]1O)[C@@]1(C)CC(=O)C(O)=C(C)[C@@H]1C[C@H]3OC(=O)[C@H](OC(=O)/C=C(\C)C1(C)CO1)[C@@H]24` (stereo partly drawn): the T/C was 119 % of control (dose: 0.12 mg/kg/injection, schedule: Q01DX009 (ip), vehicle: saline + alcohol) and 105 % of control (dose: 0.5 mg/kg/injection, schedule: Q01DX009 (ip), vehicle: saline + alcohol).
In the case of `COC1(C)CNc2ccccc2C(=O)N1` (stereo not drawn), the T/C by setting is: under setting [4], 96 % of control; under setting [5], 98 % of control; under setting [6], 94 % of control.
For the compound `Cc1ccc([N+]([O-])=NC#N)cc1`, the T/C reads like this: (dose: 7.5 mg/kg/injection, schedule: Q04DX003 (ip), vehicle: Klucel (hydroxypropylcellulose) (HPC)) 97 % of control; (dose: 15.0 mg/kg/injection, schedule: Q04DX003 (ip), vehicle: Klucel (hydroxypropylcellulose) (HPC)) 100 % of control; (dose: 30.0 mg/kg/injection, schedule: Q04DX003 (ip), vehicle: Klucel (hydroxypropylcellulose) (HPC)) 112 % of control.
For `COC1(OC)OC(c2ccccc2)=C(C#N)C(c2ccccc2)C1(OC)OC` (stereo not drawn), the T/C was 102 % of control under setting [7]; 100 % of control under setting [8]; 96 % of control (dose: 240.0 mg/kg/injection, schedule: Q01DX005 (ip), vehicle: Klucel (hydroxypropylcellulose) (HPC)).
In the case of `COc1cc(/C=C/C2=C(C)C(=O)CC(c3cc(OC)cc(OC)c3)C2C)cc(OC)c1` (stereo not drawn), the T/C is, setting by setting: (dose: 12.5 mg/kg/injection, schedule: Q04DX003 (ip), vehicle: Klucel (hydroxypropylcellulose) (HPC)) 100 % of control; (dose: 25.0 mg/kg/injection, schedule: Q04DX003 (ip), vehicle: Klucel (hydroxypropylcellulose) (HPC)) 98 % of control; under setting [10], 95 % of control.
Regarding `O=S(=O)(/C=C/c1ccccc1)OCCCl`, the T/C is, setting by setting: under setting [9], 103 % of control; (dose: 100.0 mg/kg/injection, schedule: Q01DX009 (ip), vehicle: saline with Tween-80) 107 % of control; (dose: 200.0 mg/kg/injection, schedule: Q01DX009 (ip), vehicle: saline with Tween-80) 107 % of control.
As to `CCOC(=O)C(N)Cc1ccc(N(CCCl)CCCl)cc1` (stereo not drawn), the T/C is 180 % of control (dose: 0.5 mg/kg/injection, schedule: Q04DX003 (ip), vehicle: saline); 195 % of control (dose: 1.0 mg/kg/injection, schedule: Q04DX003 (ip), vehicle: saline); 250 % of control (dose: 2.0 mg/kg/injection, schedule: Q04DX003 (ip), vehicle: saline); 272 % of control (dose: 3.13 mg/kg/injection, schedule: Q01DX009 (ip), vehicle: saline); 100 % of control (dose: 6.25 mg/kg/injection, schedule: Q01DX009 (ip), vehicle: saline); 272 % of control (dose: 6.25 mg/kg/injection, schedule: Q04DX003 (ip), vehicle: saline). Further, the T/C is, setting by setting: (dose: 12.5 mg/kg/injection, schedule: Q04DX003 (ip), vehicle: saline) 240 % of control; (dose: 63.0 micrograms/kg/injection, schedule: Q04DX003 (ip), vehicle: saline) 113 % of control; (dose: 125.0 micrograms/kg/injection, schedule: Q04DX003 (ip), vehicle: saline) 113 % of control.
For `COC1OC(COC(=O)c2ccccc2)C(=O)C(OC(=O)c2ccccc2)C1N(O)C1C(COC(=O)c2ccccc2)OC2OC(C)(C)OC21` (stereo not drawn), the T/C by setting is: under setting [1], 101 % of control; under setting [2], 105 % of control; under setting [3], 100 % of control.
Take `CSC(=S)n1nc(-c2ccccc2)c(N=Nc2cccc(C)c2C)c1-c1ccccc1`: the T/C was 90 % of control (dose: 100.0 mg/kg/injection, schedule: Q04DX002 (ip), vehicle: saline with Tween-80); 89 % of control (dose: 200.0 mg/kg/injection, schedule: Q04DX002 (ip), vehicle: saline with Tween-80); 102 % of control (dose: 400.0 mg/kg/injection, schedule: Q04DX002 (ip), vehicle: saline with Tween-80).
As for `CCCCCCN(CCCCCC)C(C)C(=O)c1ccc2cc(Br)c3ccccc3c2c1` (stereo not drawn), the T/C is, setting by setting: under setting [4], 91 % of control; under setting [5], 94 % of control; under setting [6], 94 % of control.
For `CCOC(=O)Cn1cnc2sc3c(c2c1=O)CCCC3`, the T/C was 100 % of control under setting [4], 98 % of control under setting [5] and 89 % of control under setting [6].
`CCO/C=C(\C#N)S(=O)(=O)/C(C#N)=C/OCC`: the T/C was 108 % of control (dose: 100.0 mg/kg/injection, schedule: Q04DX002 (ip), vehicle: saline) and 101 % of control (dose: 200.0 mg/kg/injection, schedule: Q04DX002 (ip), vehicle: saline).
Consider `CC1CC2OC(=O)CC2C(O)C2(C)C(OC(C)(C)C)CCC12` (stereo not drawn), for which the T/C runs as follows: under setting [1], 100 % of control; under setting [2], 90 % of control.
Consider `CC12CCC3C(CCC4CC5OC(=O)CC5CC43C)C1CCC2=O` (stereo not drawn), for which the T/C under setting [10] is 102 % of control; the T/C (dose: 100.0 mg/kg/injection, schedule: Q04DX003 (ip), vehicle: Klucel (hydroxypropylcellulose) (HPC)) is 107 % of control; the T/C (dose: 200.0 mg/kg/injection, schedule: Q04DX003 (ip), vehicle: Klucel (hydroxypropylcellulose) (HPC)) is 106 % of control; the T/C (dose: 400.0 mg/kg/injection, schedule: Q04DX003 (ip), vehicle: Klucel (hydroxypropylcellulose) (HPC)) was 101 % of control.
Turning to `C[C@@H](O)c1nc(C(N)=O)cs1`, the T/C (dose: 60.0 mg/kg/injection, schedule: Q01DX005 (ip), vehicle: saline with Tween-80) is 104 % of control; the T/C (dose: 120.0 mg/kg/injection, schedule: Q01DX005 (ip), vehicle: saline with Tween-80) was 109 % of control; the T/C (dose: 240.0 mg/kg/injection, schedule: Q01DX005 (ip), vehicle: saline with Tween-80) is 106 % of control.
With `BrCC[Se](Br)(Br)c1ccccc1`, the T/C (dose: 1.56 mg/kg/injection, schedule: Q01DX009 (ip), vehicle: Klucel (hydroxypropylcellulose) (HPC)) was 101 % of control; the T/C (dose: 3.12 mg/kg/injection, schedule: Q01DX009 (ip), vehicle: Klucel (hydroxypropylcellulose) (HPC)) was 101 % of control; the T/C (dose: 6.25 mg/kg/injection, schedule: Q01DX009 (ip), vehicle: Klucel (hydroxypropylcellulose) (HPC)) is 99 % of control and 93 % of control.
